In patent publication EP4775580A1, “COMPOUND, PHARMACEUTICAL COMPOSITION COMPRISING SAME, AND USE THEREOF” (Euregen Biopharma Co., Ltd., priority 2023, dated 2025) one finds IC50 data, which are given here for two molecules.

In general, IC50 refers to the concentration that inhibits the measured activity by half. A high value points to lower potency.

Substitutions are numbered along the chain they refer to.

What all share (details): FP, 8 nM Menin, 4 nM MLL peptide
One experiment concerns the target T1, Menin-M327V (Homo sapiens, UniProt O00255, M322V).
T1 sequence (O00255 1-615 isoform O00255-1 M327V): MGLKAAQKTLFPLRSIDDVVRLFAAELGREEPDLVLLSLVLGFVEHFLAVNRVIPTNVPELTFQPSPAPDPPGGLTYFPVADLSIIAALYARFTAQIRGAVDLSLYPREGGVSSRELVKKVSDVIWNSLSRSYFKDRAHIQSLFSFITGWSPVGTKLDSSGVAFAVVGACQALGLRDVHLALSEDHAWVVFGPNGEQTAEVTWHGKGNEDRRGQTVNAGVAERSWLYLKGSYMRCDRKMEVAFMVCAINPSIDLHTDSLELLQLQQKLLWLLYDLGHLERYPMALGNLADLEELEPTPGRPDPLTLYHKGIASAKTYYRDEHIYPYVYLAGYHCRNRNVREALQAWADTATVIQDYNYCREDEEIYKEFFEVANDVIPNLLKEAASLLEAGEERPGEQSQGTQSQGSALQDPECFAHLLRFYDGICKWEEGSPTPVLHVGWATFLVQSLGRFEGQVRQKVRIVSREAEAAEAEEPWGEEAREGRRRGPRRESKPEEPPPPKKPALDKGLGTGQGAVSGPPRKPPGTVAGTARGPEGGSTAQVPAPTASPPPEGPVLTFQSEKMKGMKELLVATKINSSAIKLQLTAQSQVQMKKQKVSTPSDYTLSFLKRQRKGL
Kind of experiment: Fluorescence polarization assay of Menin binding to MLL peptide, M327V mutant. The source says:
(§1) • 1. Objective: To evaluate the inhibitory activity of compounds against wild-type Menin protein (Menin-WT) and its mutant variants (Menin-M327V, Menin-M327I, Menin-T349M, Menin-S160T, Menin-S160C, Menin-G331R, and Menin-G331D). • 2. Experimental Principle: The experiment employed fluorescence polarization (FP) to detect the binding of wild-type Menin protein and its mutant variants to MLL peptide. In the absence of inhibitors, binding of wild-type Menin protein and its mutant variants to MLL peptide generates a high FP signal; upon addition of inhibitors, the binding between Menin proteins and MLL peptide is disrupted, resulting in a low FP signal. • 3. Experimental Materials: Final concentration of wild-type Menin protein and its mutant variants: 8 nM; final concentration of MLL peptide: 4 nM. Assay buffer: 50 mM Tris-HCl (pH 8.0), 120 mM NaCl, 0.005% CA-630, 2 mM DTT. • 4. […] The plate was centrifuged at 1000 rpm for 60 seconds. Subsequently, 10 µL of MLL peptide was added to each assay well. The plate was centrifuged at 1000 rpm for 60 seconds and sealed with a sealing membrane. After incubation at 23°C for 60 minutes, the plate was read using a PerkinElmer Envision reader. Data Analysis: [formula]
(§2) Curve fitting: XLFIT software was used for curve fitting, employing a four-parameter logistic model with percent inhibition versus log(compound concentration) as variables.
(In fluorescence polarisation assays a small probe gives low polarisation when free and higher when bound to something large.)

Another experiment deals with T2, Menin-T349M (Homo sapiens, UniProt O00255, T344M).
T2 sequence (O00255 1-615 isoform O00255-1 T349M): T1 sequence (O00255 1-615 isoform O00255-1 M327V) with V327M, T349M
Kind of experiment: Fluorescence polarization assay of Menin binding to MLL peptide, T349M mutant.
Source text: as §1, §2

Another experiment has as its target T3, Menin-G331R (Homo sapiens, UniProt O00255, G326R).
T3 sequence (O00255 1-615 isoform O00255-1 G331R): T1 sequence (O00255 1-615 isoform O00255-1 M327V) with V327M, G331R
Kind of experiment: Fluorescence polarization assay of Menin binding to MLL peptide, G331R mutant.
Source text: as §1, §2

On to `CCN(C(=O)c1cc(F)ccc1N1CCN([C@@H]2CCN([C@H](CCCN(C)CCOC)C(C)C)C2)c2ncncc21)C(C)C` [Example 3], for which the values for the IC50 on Menin-M327V, on Menin-T349M and at Menin-G331R were 49.3 nM, 46.7 nM and 36.7 nM, respectively.

As to `CCN(C(=O)c1cc(F)ccc1Oc1cncnc1N1CC2(CCN(C[C@H]3CC[C@H](NS(=O)(=O)CC)CC3)CC2)C1)C(C)C` [SNDX-5613, revumenib], the half-maximal inhibitory concentration (IC50) worked out at 1300 nM at Menin-M327V, 271 nM at Menin-T349M and 101 nM at Menin-G331R.
